Measurements taken from patent publication US20050192285A1, “Method of treatment” (priority 2000, published 2005).
Where “and” joins values, the source holds several entries; their conditions need not be identical. Equal entries are not always repeated.

How the values were obtained:
[1] = GLOBE study: RTI-related hospitalizations over 26 weeks; assay type: in vivo, human; conditions: for percentage of patients hospitalized for RTI-related conditions / cumulative number of patients hospitalized for RTI-related conditions: 26 week study period; for cumulative number of patients hospitalized for RTI-related conditions: ITT (GEMI N=214, CLARI N=224)
Experimental: (§1) Prospective, 26 week, double-blind, observational parallel/follow-on study to an acute treatment efficacy and safety study (study 068) (Wilson, et al., Abstracts of the 40th Interscience Conference of Clinical Microbiology and Infectious Diseases, Toronto, Canada, Abstract 815 (2000)) in which patients randomly received a single course of either 5 days of oral GEMI 320mg once daily (o.d.) or 7 days of oral CLARI 500 mg twice daily (b.d.) for AECB (Wilson, et al., Abstracts of the 40th Interscience Conference of Clinical Microbiology and Infectious Diseases, Toronto, Canada, Abstract 815 (2000)).
(§2) Patients were assessed at screening (visit 1) at day 28-35 (visit 2) then at weeks 12 (visit 3) and 26 (visit 4) and by telephone at weeks 8, 17 and 21.
(§3) Information was collected on: recurrent episodes of AECB requiring antimicrobial treatment; use of medical resources related to respiratory tract infection (RTI), including RTI-related:- hospitalizations, physician visits and antimicrobial therapy; time off work and usual activities; and negative impact on performance at work or during usual activities.
Medical resource utilization was analyzed on cumulative data across all patients in the ITT population.

[2] = cited from earlier work
[3] = GLOBE study: recurrence of AECB requiring antimicrobial treatment over 26 weeks; assay type: in vivo, human; conditions: for Difference GEMI-CLARI in % patients with no recurrences / % patients resolved and with no recurrences of AECB: ITT; for % patients resolved and with no recurrences of AECB: GEMI 320 mg o.d./5 days, CLARI 500 mg b.d./7 days
Experimental: Background: Few health outcome studies have been reported for antimicrobial treatment of acute infections. In one study, trends favoring ciprofloxacin versus ‘usual care’ in terms of clinical outcomes were found (Grossman, et al., Chest, 113:131-141 (1998)). In this double-blind, prospective long-term study, patients who enrolled into a study comparing 320 mg gemifloxacin (GEMI) once daily (o.d.)/5 days with 500 mg clarithromycin (CLARI) twice daily (b.d.)/7 days for the treatment of AECB, and agreed at enrollment to continue in the study for up to 26 weeks, were assessed for clinical status and use of health care resources.
Methods: Clinical assessments were performed at screening (day 0), week 4-5 (end of acute study), weeks 12 and 26 and by telephone at weeks 8, 17 and 21.
as §1
All patients entering study 068 at centers in the USA and Canada were asked to participate in the GLOBE study.
as §2, §3
Clinical outcomes were analyzed for patients in the intention to treat population (ITT) who were available for assessment at 26 weeks (visit 4).

[4] = tested on: H. influenzae; conditions: subset of patients with daily sputum cultures; p=0.02; cited from earlier work

SMILES	RTI-related hospitalization days per 100 patients ([1]; 26-week study period) [days per 100 patients]	Cumulative number of RTI-related hospitalization days, mean (SD) ([1]; 26-week study period, ITT)	Cumulative number of RTI-related hospitalization days, median (range) ([1]; 26-week study period, ITT)	percentage of patients hospitalized for RTI-related conditions ([1]; ITT) [%]	cumulative number of patients hospitalized for RTI-related conditions [1]	RTI-related hospitalizations across all visits, percentage ([1]; 26 weeks, ITT) [%]	cumulative number of RTI-related hospitalizations across all visits ([1]; 26 weeks, ITT)	patients with a recurrence of AECB ([3]; by week 26) [%]	% patients resolved and with no recurrences of AECB ([3]; visit 2 (day 28-35))	% patients resolved and with no recurrences of AECB ([3]; visit 3 (week 12))	% patients resolved and with no recurrences of AECB ([3]; visit 4 (week 26))	other results
CO/N=C1\CN(c2nc3c(cc2F)c(=O)c(C(=O)O)cn3C2CC2)CC1CN (racemic) [GEMI, (R,S)-7-(3-aminomethyl-4-methoxyiminopyrrolidin-1-yl)-1-cyclopropyl-6-fluoro-4-oxo-1,4-dihydro-1,8-naphthyridine-3-carboxylic acid]	20	0.20 (1.43) days	0 (0-16) days	2.3	5	3.3	7	29.0	87.1 (176/202) %	80.9 (148/183) %	71.0% and 71.0 (120/169) %	Median difference gemifloxacin-clarithromycin in RTI-related hospitalization days (95% CI) ([1]; 26-week study period, ITT): 0 (0, 0) days; treatment difference in RTI-related hospitalizations ([1]; GEMI minus CLARI, 26 weeks): −3.87%; treatment difference in patients hospitalized for RTI-related conditions ([1]; GEMI minus CLARI, 26 weeks): −3.91%; effectiveness of acute treatment compared with CLARI ([2]; 5 days GEMI vs 7 days CLARI): as effective as; bacteriological success rates compared with CLARI ([2]; all study visits, significantly higher at late follow-up days 28-35): higher; preventing further exacerbations versus CLARI ([3]; 6 month period following start of therapy, GEMI 320 mg o.d./5 days vs CLARI 500 mg b.d./7 days): superior to CLARI; long-term clinical outcomes in AECB compared to clarithromycin ([3]; GLOBE conclusions): superior; fewer patients with a recurrence of AECB compared with CLARI ([3]; by week 26, relative reduction (29.0% vs. 41.5%)): 30%; Difference GEMI-CLARI in % patients with no recurrences ([3]; visit 2 (day 28-35)): 6.3%; Difference GEMI-CLARI in % patients with no recurrences ([3]; visit 3 (week 12)): 6.4%; Difference GEMI-CLARI in % patients with no recurrences ([3]; visit 4 (week 26)): 12.5% and 12.5^b %; time to H. influenzae eradication compared with CLARI [4]: significantly faster
CC[C@H]1OC(=O)[C@H](C)[C@@H](O[C@H]2C[C@@](C)(OC)[C@@H](O)[C@H](C)O2)[C@H](C)[C@@H](O[C@@H]2O[C@H](C)C[C@H](N(C)C)[C@H]2O)[C@](C)(OC)C[C@@H](C)C(=O)[C@H](C)[C@@H](O)[C@]1(C)O [CLARI, clarithromycin, reference compound]	37	0.37 (1.60) days	0 (0-11) days	6.3	14	7.1	16	41.5	80.8 (173/214) %	74.4 (131/176) %	58.5% and 58.5 (100/171) %	
